Assays:
[1] = molecular target: dimethylarginine dimethylaminohydrolase-1 (DDAH-1) (Homo sapiens, UniProt O94760); assay: time-dependent inactivation kinetics in competition with ADMA; assay type: biochemical; settings: read-out: Ki
[2] = molecular target: T1, human arginase-I (Mn-hArgI) (Homo sapiens, UniProt P05089); assay: urea formation assay, IC50 […] with Cheng-Prusoff Ki; assay type: biochemical
T1 sequence (P05089 1-322): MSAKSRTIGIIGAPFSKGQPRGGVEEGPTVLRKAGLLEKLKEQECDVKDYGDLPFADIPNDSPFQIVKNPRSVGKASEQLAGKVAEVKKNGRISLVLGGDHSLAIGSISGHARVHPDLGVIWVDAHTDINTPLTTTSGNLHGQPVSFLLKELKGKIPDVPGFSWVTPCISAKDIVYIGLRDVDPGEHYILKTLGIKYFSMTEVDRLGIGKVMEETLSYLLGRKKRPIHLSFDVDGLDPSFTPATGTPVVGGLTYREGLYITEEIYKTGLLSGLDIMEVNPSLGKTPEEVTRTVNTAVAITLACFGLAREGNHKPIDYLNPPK

Chain of dimethylarginine dimethylaminohydrolase-1 (DDAH-1) (O94760 whole entry): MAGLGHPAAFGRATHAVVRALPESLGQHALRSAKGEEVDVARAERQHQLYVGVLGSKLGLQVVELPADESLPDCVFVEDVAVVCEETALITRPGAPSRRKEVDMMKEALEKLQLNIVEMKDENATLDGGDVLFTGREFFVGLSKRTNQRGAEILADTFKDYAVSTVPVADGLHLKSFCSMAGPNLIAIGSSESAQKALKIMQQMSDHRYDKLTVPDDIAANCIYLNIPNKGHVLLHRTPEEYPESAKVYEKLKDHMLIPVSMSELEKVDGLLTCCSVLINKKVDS

`N=C(CCl)NCCC[C@H](N)C(=O)O` [Cl-NIO, N^5-(1-imino-2-chloroethyl)-L-ornithine] showed a KI (inactivation) [1] of 1.3 ± 0.6 µM and a Ki [2] of 3100 µM.

Source: article PMC4311893 (ChemMedChem, 2014)
